In article PMC7808747, “Design, synthesis, and in vitro evaluation of BP-1-102 analogs with modified hydrophobic fragments for STAT3 inhibition” (Journal of Enzyme Inhibition and Medicinal Chemistry, 2021):
Entries after “also recorded” stand apart in the source; their conditions may differ. Like-named read-outs stand apart in the source and are kept apart here.

How the values were obtained:
[1] = system: human breast cancer MDA-MB-231 cell line; experiment: Resazurin cytotoxicity assay, MDA-MB-231; assay type: cell-based; details: for cytotoxic effect in MDA-MB-231 (in words): 0, 5, 10, 20, 50 µM
Description: (§1) The cells were treated with the compounds at concentrations 0, 5, 10, 20, and 50 µM for 24 h, and the cytotoxicity was estimated by the resazurin assay.
To estimate IC50 of 6 and 14, MDA-MB-231 cells were treated with 1 (0, 2, 5, 10, 15, 20, 25, 30, 40, and 50 µM), 6 (0, 5, 10, 20, 25, 30, 40, 50, 70, and 100 µM), and 14 (0, 20, 40, 50, 60, 70, 80, 100, 150, and 200 µM) for 24 h.
(§2) The resazurin reduction assay[34] was performed as described previously. Briefly, cells were seeded onto a 96-well plate (2000 cells per well) in hexaplicate and the following day treated with the tested compounds (dissolved in DMSO as 50 mM stock) in a concentration range as indicated. After 24 h, 200 μl of culture medium of each well was exchanged for 100 μl of resazurin (stock 30 mg/ml; Sigma, St. Louis, MO) diluted 10 times in the culture medium, and the cells were incubated at 37 °C for 1–3 h. Reading of fluorescence was done using an Envision reader (PerkinElmer, Waltham, MA). Absolute values of fluorescence were related to the values of control/untreated cells. To estimate the cytotoxic concentration (half maximal inhibitory concentration, IC50), log-scale data were processed in GraphPad Prism software (La Jolla, CA) using nonlinear fit curve.

[2] = system: prostate carcinoma DU-145; experiment: Resazurin cytotoxicity assay, DU-145; details: Homo sapiens, DU-145, read-out: IC50±SD DU-145
Description: (§3) Furthermore, the cytotoxicity of compound 6 was compared to BP-1-102 (1) in human glioblastoma cell lines U-87 and T98 in concentration range 0–80 µM for 24 h using the crystal violet assay.
as §2

RPE-1 = experiment: Resazurin assay, RPE-1 (Table 2); assay type: cell-based; details: Homo sapiens, resazurin assay (footnote a), read-out: IC50±SD RPE-1
Description: The resazurin reduction assay[34] was performed as described previously[38]. Briefly, cells were seeded onto a 96-well plate (2000 cells per well) in hexaplicate and the following day treated with the tested compounds (dissolved in DMSO as 50 mM stock) in a concentration range as indicated. After 24 h, 200 μl of culture medium of each well was exchanged for 100 μl of resazurin (stock 30 mg/ml; Sigma, St. Louis, MO) diluted 10 times in the culture medium, and the cells were incubated at 37 °C for 1–3 h. Reading of fluorescence was done using an Envision reader (PerkinElmer, Waltham, MA). Absolute values of fluorescence were related to the values of control/untreated cells. To estimate the cytotoxic concentration (half maximal inhibitory concentration, IC50), log-scale data were processed in GraphPad Prism software (La Jolla, CA) using nonlinear fit curve.

[3] = system: mouse lung TC-1 cancer cell line; experiment: MTT cytotoxicity assay, TC-1; assay type: cell-based; details: for IC50: Mus musculus, read-out: IC50±SD TC-1; for cytotoxic effect in TC-1 (in words): 0–50 µM, 24 h
Description: (§4) Cells were seeded at the density of 2000 cells per well (96-well F microplates; Nunc, Roskilde, Denmark). The following day, the tested compounds were added. In the next 24 h, MTT (3-(4,5-dimethylthiazol-2-yl)-2,5-diphenyltetrazolium bromide) was added. After 6 h, DMF (dimethylformamide) was added, and after additional 24 h, absorbance was measured at 560 nm by a microplate reader.

[4] = system: mouse prostate TRAMP-C2 cancer cell line; experiment: MTT cytotoxicity assay, TRAMP-C2; assay type: cell-based; details: for IC50: Mus musculus, read-out: IC50±SD TRAMP-C2; for cytotoxic effect in TRAMP-C2 (in words): 0–50 µM, 24 h
Description: as §4

MDA-MB-231 cells = experiment: Annexin V / propidium iodide FACS, MDA-MB-231; assay type: cell-based, human; details: MDA-MB-231, 0, 5, 10, 20, 50 µM, 24 h
Description: (§6) Cells were harvested by centrifugation, resuspended in cold PBS and again centrifuged. Cell pellets were then resuspended in Annexin V Binding Buffer (ApoFlowEx FITC Kit, ED7044, Exbio, Vestec, Czech Republic), annexin V-APC and PI were added to the cell pellet and mixed. Cells were incubated in the dark at room temperature for 15 min. After the incubation, cells were centrifuged, resuspended in Annexin V Binding Buffer and analysed by flow cytometry. Five thousand cells per sample were measured by analysing annexin V and PI using a BD FACSVerse™ flow cytometer (BD Biosciences, Franklin Lakes, NJ). Data were analysed using FlowJo 10 software (FlowJo LLC, Ashland, OR), and the percentage of viable (annexin V-negative/PI-negative) cells relative to control was plotted.

TRAMP-C2 cells = experiment: Annexin V / propidium iodide FACS, TRAMP-C2; assay type: cell-based, mouse; details: TRAMP-C2, 24 h
Description: as §6

[5] = system: STAT3 Y705 phosphorylation (pY705); experiment: STAT3 pY705 immunoblotting, MDA-MB-231; assay type: cell-based, human; details: MDA-MB-231, micromolar concentration range, 4 h
Description: The cells were exposed to BP-1-102 (1), compounds 6 and 14 in a micromolar concentration range for 4 h, and then the levels of STAT3 pY705 and total STAT3 were probed by immunoblotting with specific antibodies. […] It can be concluded that both novel compounds 6 and 14 manifested inhibitory effects on receptor-mediated phosphorylation of Y705 of STAT3 in both human and mouse cell lines.
Cells were washed three times with PBS, harvested into 95 °C-heated Laemmli SDS sample lysis buffer (2% SDS, 50 mM Tris–Cl, 10% glycerol in double distilled H2O) and sonicated at 3 μm amplitude for 3 × 10 or 3 × 30 s with 10 or 30 s cooling intervals in a Soniprep 150 (MSE, London, UK) or Diagenode Bioruptor 300 (Diagenode, Liege, Belgium) for human and murine cell lines, respectively. Concentration of proteins was estimated by the Pierce^TM BCA Protein Assay (Thermo Scientific, Waltham, MA). DTT (100 mM) and 0.01% bromophenol blue were added to the lysates before separation by SDS-PAGE (10% gels were used). Equal protein amounts (40 or 35 μg for human or murine cell lines, respectively) were loaded into each well. Proteins were electrotransferred onto a nitrocellulose membrane (Amersham^TM Protran^TM 0.45 µm NC, GE Healthcare, Chalfont St Giles, UK) using wet transfer and detected by specific antibodies (at 4 °C overnight) combined with HRP-conjugated secondary antibodies. Peroxidase activity was detected by Amersham^TM ECL Western Blotting Detection Reagents (GE Healthcare, Chalfont St Giles, UK). GAPDH was used as a loading control.

TC-1 cells = experiment: Annexin V / propidium iodide FACS, TC-1; details: TC-1, 24 h
Description: as §6

[6] = system: human breast adenocarcinoma MCF-7; experiment: Resazurin cytotoxicity assay, MCF-7; details: Homo sapiens, MCF7, read-out: IC50±SD MCF-7
Description: as §3, §2

[7] = system: human immortalised retinal pigment epithelium RPE-1; experiment: Crystal violet assay, RPE-1; details: 0–50 µM, 24 h
Description: as §1
(§5) To determine cell viability by crystal violet assay, cells were seeded in 96-well plates at densities of 3000 (RPE-1), 5000 (U373 and T98-G), and 8000 (U-87 MG) cells per well. The next day the cells were treated with the tested compounds in triplicate in a concentration range as indicated. After 24 h, the cells in each well were washed twice with 150 µl PBS and then stained in 30 µl 0.5% w/v crystal violet in 20% methanol for 15 min. Plates were washed three times with double distilled H2O and left to dry overnight. Crystal violet was solubilised with 75 µl 0.2% Triton X-100 (Sigma, St. Louis, MO) in PBS for 15 min. Absorbance of crystal violet was measured at 595 nm using a microplate reader (Multiskan EX, Thermo Electron Corporation, Waltham, MA). Absorbance of the treated samples was expressed as a percentage of absorbance of untreated cells.

human glioblastoma U373 = experiment: Crystal violet assay, U373; details: 0–50 µM, 24 h
Description: as §1, §5

[8] = system: human glioblastoma cell line T98; experiment: Crystal violet assay, T98; details: 0–80 µM, 24 h, compared to U-87 cells
Description: as §3, §5

[9] = Homo sapiens, MDA-MB-231, 24 h, resazurin assay, 24 h, read-out: IC50±SD MDA-MB-231

CN(CC(=O)N(Cc1ccc(C2CCCCC2)cc1)c1ccc(C(=O)O)c(O)c1)S(=O)(=O)c1c(F)c(F)c(F)c(F)c1F [BP-1-102 (1), 4-(N-(4-Cyclohexylbenzyl)-2-(2,3,4,5,6-pentafluoro-N-methylphenylsulfonamido)acetamido)-2-hydroxybenzoic acid, reference compound]
IC50 ([1]; Homo sapiens, MDA-MB-231, 24 h, read-out: IC50±SD MDA-MB-231, resazurin assay, 24 h): 15 µM | IC50 ([1]; read-out: IC50±SD MDA-MB-231, resazurin assay, 24 h): 15 ± 3.7 µM | IC50 [2]: 18 ± 8.3 µM | IC50 (RPE-1): 13.9 ± 0.2 µM | IC50 [3]: 7.8 ± 1.1 µM | IC50 [4]: 7.9 ± 4.5 µM | cell death induction (annexin V/PI, FACS) (MDA-MB-231 cells): cell death induction was confirmed | cytotoxicity by annexin V/PI staining and FACS (TRAMP-C2 cells): confirmed | inhibition of constitutive STAT3 Y705 phosphorylation [5]: inhibited constitutive STAT3 phosphorylation | cytotoxicity by annexin V/PI staining and FACS (TC-1 cells): confirmed

Cc1ccc(S(=O)(=O)N(C)CC(=O)N(Cc2ccccc2)c2ccc(C(=O)O)c(O)c2)cc1 [Compound 3, 4-(N-(Benzyl)-2-(N-methyl-N-(p-toluenesulfonyl))acetamido)-2-hydroxybenzoic acid]
cytotoxic effect in MDA-MB-231 (in words) ([1]; 24 h, resazurin assay): lacking any significant cytotoxicity; also recorded: complete loss of cytotoxic activity

CN(CC(=O)N(Cc1ccccc1)c1ccc(C(=O)O)c(O)c1)S(=O)(=O)c1c(F)c(F)c(F)c(F)c1F [Compound 4, 4-(N-(Benzyl)-2-(2,3,4,5,6-pentafluoro-N-methylphenylsulfonamido)acetamido)-2-hydroxybenzoic acid]
cytotoxic effect in MDA-MB-231 (in words) ([1]; 24 h, resazurin assay): mild-to-negligible cytotoxicity | IC50 [1, 9]: > 50 µM | IC50 [2]: > 50 µM | IC50 [6]: > 50 µM | IC50 (RPE-1): > 50 µM

Cc1ccc(S(=O)(=O)N(C)CC(=O)N(Cc2ccc(C(C)(C)C)cc2)c2ccc(C(=O)O)c(O)c2)cc1 [Compound 5, 4-(N-(4-tert-Butylbenzyl)-2-(N-methyl-N-(p-toluenesulfonyl))acetamido)-2-hydroxybenzoic acid]
cytotoxic effect in MDA-MB-231 (in words) ([1]; 24 h, resazurin assay): mild-to-negligible cytotoxicity; also recorded: complete loss of cytotoxic activity

CN(CC(=O)N(Cc1ccc(C(C)(C)C)cc1)c1ccc(C(=O)O)c(O)c1)S(=O)(=O)c1c(F)c(F)c(F)c(F)c1F [Compound 6, 4-(N-(4-tert-Butylbenzyl)-2-(2,3,4,5,6-pentafluoro-N-methylphenylsulfonamido)acetamido)-2-hydroxybenzoic acid]
IC50 [1, 9]: 26.2 µM | concentration from which the compound was cytotoxic ([1]; MDA-MB-231, 24 h, resazurin assay): 10 µM | IC50 ([1]; resazurin assay, 24 h, read-out: IC50±SD MDA-MB-231): 26.2 ± 5.6 µM | IC50 [2]: 34 ± 2.6 µM | IC50 [6]: 19.6 ± 3.6 µM | IC50 (RPE-1): 24.5 ± 2.6 µM | cytotoxic effect in TC-1 (in words) [3]: cytotoxic activity comparable to BP-1-102 (1) | IC50 [3]: 6.2 ± 1.1 µM | cytotoxic effect in TRAMP-C2 (in words) ([4]; MTT assay): cytotoxic activity comparable to BP-1-102 (1) | IC50 ([4]; MTT assay): 14.5 ± 13.4 µM | cytotoxic activity in RPE-1 (in words) [7]: concentration-dependent cytotoxic activity | cytotoxic activity in U373 (in words) (human glioblastoma U373): concentration-dependent cytotoxic activity | cytotoxicity in T98 (in words) [8]: remarkable resistance | cell death induction (annexin V/PI, FACS) (MDA-MB-231 cells): cell death induction was confirmed | cytotoxicity by annexin V/PI staining and FACS (TRAMP-C2 cells): confirmed | inhibition of constitutive STAT3 Y705 phosphorylation [5]: inhibited constitutive STAT3 phosphorylation | cytotoxicity by annexin V/PI staining and FACS (TC-1 cells): confirmed

COc1ccc(CN(C(=O)CN(C)S(=O)(=O)c2c(F)cc(F)cc2F)c2ccc(C(=O)O)c(O)c2)cc1 [Compound 7, 4-(N-(4-Methoxybenzyl)-2-(2,4,6-trifluoro-N-methylphenylsulfonamido)acetamido)-2-hydroxybenzoic acid]
cytotoxic effect in MDA-MB-231 (in words) ([1]; 24 h, resazurin assay): lacking any significant cytotoxicity; also recorded: complete loss of cytotoxic activity

COc1ccc(CN(C(=O)CN(C)S(=O)(=O)c2c(F)c(F)c(F)c(F)c2F)c2ccc(C(=O)O)c(O)c2)cc1 [Compound 8, 4-(N-(4-Methoxybenzyl)-2-(2,3,4,5,6-pentafluoro-N-methylphenylsulfonamido)acetamido)-2-hydroxybenzoic acid]
cytotoxic effect in MDA-MB-231 (in words) ([1]; 24 h, resazurin assay): lacking any significant cytotoxicity; also recorded: no cytotoxic activity | cytotoxic effect in TC-1 (in words) [3]: mild cytotoxic effect; also recorded: mild cytotoxicity | cytotoxic effect in TRAMP-C2 (in words) ([4]; MTT assay): mild cytotoxic effect; also recorded: mild cytotoxicity | cytotoxic activity in U373 (in words) (human glioblastoma U373): no cytotoxic activity

CN(CC(=O)N(Cc1ccc(C(F)(F)F)cc1)c1ccc(C(=O)O)c(O)c1)S(=O)(=O)c1ccccc1 [Compound 9, 4-(N-(4-Trifluoromethylbenzyl)-2-(N-methylphenylsulfonyl)acetamido)-2-hydroxybenzoic acid]
cytotoxic effect in MDA-MB-231 (in words) ([1]; 24 h, resazurin assay): complete loss of cytotoxic activity
